Test results as given in patent US12491220B2, “Compositions containing indole-derived metabolites and methods of use thereof” (Imvela Corp., priority 2024, dated 2025).

Columns and labels:
[1] = target: T1, AhR (Canis lupus familiaris, UniProt A0A8I3RSX6); experiment: AhR activation in canine cell line expressing AhR, in vitro luminescence (Example 1); assay type: cell-based; details: 200 PM, FIG. 5, normalized to methylcholanthrene
T1 sequence (A0A8I3RSX6 1-853): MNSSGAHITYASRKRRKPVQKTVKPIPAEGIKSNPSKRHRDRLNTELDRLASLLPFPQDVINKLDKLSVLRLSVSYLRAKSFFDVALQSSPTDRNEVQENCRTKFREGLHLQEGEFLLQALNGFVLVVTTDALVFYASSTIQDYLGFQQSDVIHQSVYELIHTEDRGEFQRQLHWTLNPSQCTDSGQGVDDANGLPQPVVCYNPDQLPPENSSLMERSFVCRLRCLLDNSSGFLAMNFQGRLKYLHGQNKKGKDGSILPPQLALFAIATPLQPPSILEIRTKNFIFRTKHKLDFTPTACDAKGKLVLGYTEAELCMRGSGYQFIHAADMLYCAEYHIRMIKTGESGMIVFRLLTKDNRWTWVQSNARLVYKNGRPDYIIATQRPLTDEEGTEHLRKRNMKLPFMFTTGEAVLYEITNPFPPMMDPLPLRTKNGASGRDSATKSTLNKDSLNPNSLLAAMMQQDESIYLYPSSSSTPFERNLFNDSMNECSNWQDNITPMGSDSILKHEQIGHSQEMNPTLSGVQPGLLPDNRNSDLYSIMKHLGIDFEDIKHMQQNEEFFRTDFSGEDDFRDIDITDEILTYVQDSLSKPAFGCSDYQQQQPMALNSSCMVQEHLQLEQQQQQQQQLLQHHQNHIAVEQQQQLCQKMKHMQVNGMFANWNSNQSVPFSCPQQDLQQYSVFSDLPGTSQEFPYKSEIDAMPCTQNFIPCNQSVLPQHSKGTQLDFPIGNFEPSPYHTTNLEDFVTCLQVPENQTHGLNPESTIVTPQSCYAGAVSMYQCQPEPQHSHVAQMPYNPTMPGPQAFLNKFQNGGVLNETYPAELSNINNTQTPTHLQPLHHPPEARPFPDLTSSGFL
Procedure: (§1) The utility of ILA and IAld in multiple host was validated by an in vitro assay. Human or canine cell lines expressing AhR were exposed to ILA or IAld at […], and AhR activation was assayed using in vitro luminescence.

[2] = target: T2, AhR (Homo sapiens, UniProt P35869); experiment: AhR activation in human cell line expressing AhR, in vitro luminescence (Example 1); assay type: cell-based; details: 200 PM, FIG. 5, normalized to methylcholanthrene
T2 sequence (P35869 11-848): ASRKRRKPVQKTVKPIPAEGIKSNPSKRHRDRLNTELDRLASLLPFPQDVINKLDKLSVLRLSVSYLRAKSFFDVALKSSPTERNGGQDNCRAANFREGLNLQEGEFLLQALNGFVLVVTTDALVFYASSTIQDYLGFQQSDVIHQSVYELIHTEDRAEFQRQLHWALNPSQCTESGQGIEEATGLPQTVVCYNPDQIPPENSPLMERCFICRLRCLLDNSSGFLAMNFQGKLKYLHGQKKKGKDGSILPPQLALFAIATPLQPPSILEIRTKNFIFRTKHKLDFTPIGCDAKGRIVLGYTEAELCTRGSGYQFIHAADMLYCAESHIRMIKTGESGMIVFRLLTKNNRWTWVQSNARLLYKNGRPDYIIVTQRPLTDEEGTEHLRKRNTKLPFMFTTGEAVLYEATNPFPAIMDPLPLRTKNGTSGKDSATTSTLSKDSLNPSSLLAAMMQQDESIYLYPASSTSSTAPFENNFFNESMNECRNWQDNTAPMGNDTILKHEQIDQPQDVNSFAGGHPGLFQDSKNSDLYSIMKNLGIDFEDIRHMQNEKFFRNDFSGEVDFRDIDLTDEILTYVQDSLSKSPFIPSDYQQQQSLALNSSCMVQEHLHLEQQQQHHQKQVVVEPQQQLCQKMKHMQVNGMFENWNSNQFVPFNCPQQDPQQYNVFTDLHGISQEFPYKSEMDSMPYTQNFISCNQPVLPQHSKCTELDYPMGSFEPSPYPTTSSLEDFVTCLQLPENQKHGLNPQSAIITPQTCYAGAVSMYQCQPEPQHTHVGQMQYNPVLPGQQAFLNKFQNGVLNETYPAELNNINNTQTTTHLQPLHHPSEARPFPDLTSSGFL
Procedure: as §1

O=Cc1c[nH]c2ccccc12 [IAld, indole-3-carboxaldehyde]
AhR activation [1]: AhR activation was observed | AhR activation [2]: AhR activation was observed

O=C(O)C(O)Cc1c[nH]c2ccccc12 (stereo not shown) [ILA, indole-3-lactic acid]
AhR activation [1]: AhR activation was observed | AhR activation [2]: AhR activation was observed
